Assay results: patent publication US12193465B2, “Materials and methods for extending shelf-life of foods” (JP Laboratories, Inc., priority 2021, dated 2025)
Several values for one entry are separate records, joined by “and”; a condition that tells them apart may be missing. Equal entries are not always repeated. Entries after “also recorded” stand apart in the source; their conditions may differ.

Legend:
[1] = Color loss of meat and fish; conditions: meat and fish
Excerpt: (§1) Most of the foods changed color or texture.
(§2) These bags were sealed with a heat sealer.

[2] = Color change / browning / yellowing of foods (keeping produce green longer); conditions: for Change in color and softness: after 70 days
Protocol: All studies were conducted at a room temperature of about 25° C. To determine the effectiveness of a shelf-life extender, a control sample which was untreated with any shelf-life extenders, was tested identical to the test samples. […] All studies in those Examples of Tables 1-6 were conducted in closed plastic or glass containers. Containers, such as plastic containers, without or with lids having holes can be used if it is advantageous to let excess moisture escape or to prevent condensation of moisture released by some produce.
Food exposed to preservatives or by a sachet was placed in typically polystyrene or acrylic containers depending upon the size and number of food items. Glass jars and bottles were also used. The containers were snap-closed or with a lid. The containers were purchased mainly from Amazon or Webstaurant.com store. When needed, plastic containers with holes or without lids were used.
For controlled exposure and a constant supply of a preservative to foods, sachets containing one or more drops of preservatives were used. Sachets were made by placing an appropriate amount of a preservative in a plastic bag containing a piece of paper and heat sealing the bag. The sachet bag materials used were Tyvek® for solid preservative, polyethylene, polyester and high barrier multilayer films were used for liquid preservatives. These bags were sealed with a heat sealer. The sachet was typically applied on one side of the container containing food.
A piece of paper napkin was taped inside a 100 microns thick polyethylene or polyester Ziploc bag. The size of the bag varied from ˜20 cm×30 cm to ˜60 cm×90 cm depended on the sample with sandwich bags up to gallon bags being exemplary. The paper napkin was wetted with 0.1-0.5 ml of a preservative or a mixture of preservatives. A tray of aluminum, stainless steel or glass containing the foods was placed inside the plastic (polyethylene, polyester and multilayer-laminated) bag and almost closed by locking the Ziploc. Air was blown with an air blower from the unclosed end until the bag was fully blown and then quickly closed tightly by locking the remaining Ziploc. If a preservative was a sublimable solid, it was placed in a petri dish and then placed inside the bag in the tray before blowing air. The exposure time was varied from five minutes to a day depending upon the food. […] The assembly was shaken periodically. After the predetermined time, the tray containing produce was removed from the bag, allowed to de-gas for 10-30 minutes in air and the produce was then placed in an appropriately sized container. Glass and stainless steel containers with lids were also often used.
A solution of one or more preservatives was prepared in a large (e.g., 2-10 liter) glass beaker or a jar. A sack containing the food was prepared by placing the food in a plastic mesh bag. The sack was placed in the solution of the preservative. A smaller glass beaker containing proper amount of water was place over the package to keep the sack soaked in the solution of the preservative during the treatment. The solution was stirred either with a plastic spatula or with a magnet over a magnetic stirrer. After treatment, the mesh sack was removed, the produce was washed in a tray with running water, strained and air dried at 30° C. in an air blowing oven for about 5-10 minutes, while shaking the tray or turning the food periodically followed by placing the sample in an appropriate container.
The food was placed in mesh trays and sprayed with an aqueous solution (1-10%) of a preservative while shaking the tray or turning the food. The solution was allowed to drain from the tray and the food was air dried in an air blowing oven at 30° C. for about 5-10 minutes, while shaking the tray or turning food periodically followed by placing the sample in an appropriate container.

avocado = assay: Softening / rotten inside (spoiled flesh) of avocado; conditions: for Spoilage Time - Sample: Softening, Avocado, control 2 days
Excerpt: as §1
(§3) The assembly was shaken periodically.

[3] = Odor and softening/mushiness of pre-soaked grains; conditions: Odor, White rice, control 5 days
Excerpt: as §1, §2

yeast = assay: Rising of dough; conditions: Example 74; Freshly prepared dough for bread; 1% in 100 g flour
Excerpt: On a control sample of freshly prepared dough, rising could continuously be observed throughout the day.

[4] = Curdling / cream / solidification of milk
Excerpt: as §1

fungus = assay: Fungus growth on treated foods stored in closed containers at room temperature; conditions: for Spoilage Time - Sample: Fungus;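 for Effectiveness on ginger: compared with untreated control ginger in closed containers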
Excerpt: as §1
Glass jars and bottles were also used. The containers were snap-closed or with a lid.
as §2, §3

[5] = General shelf-life extension of foods (spoilage criteria of Example 9)

C=CCN=C=S [AI, allyl isothiocyanate]
Improvements with meat and fish [1]: demonstrated improvements
Spoilage Time - Sample ([2]; Example 11, Browning, Coriander, 0.25 hr P-E, control 11 days): significantly delayed
Spoilage Time - Sample ([2]; Example 12, Color change, Paneer (Indian cottage cheese), Sachet, control 9 days): 10+ days
Spoilage Time - Sample ([2]; Example 13, Color change, Red cabbage juice, 0.02 g, control 12 days): 13 days
Spoilage Time - Sample ([2]; Example 14, Color change, Blackberry juice, 0.02 g, control 5 days): 12 days
Spoilage Time - Sample ([2]; Example 15, Color change, Tindora, 2 hrs P-E, control 6 days): 17 days
Spoilage Time - Sample ([2]; Example 15, Color change, Tindora, 2 hrs P-E, control 6 days, listed as allyl isothiocyanate): delay of ripening and turning red from green was achieved
Green-to-yellow color change ([2]; Example 30, fresh green chickpeas, sachet, control 7 days): > 9 days
Change in color and softness ([2]; Example 48, puri): There was very little change in color and softness of puri even after 70 days. Other
Change in color and softness ([2]; Example 53, millet bread): There was very little change in color and softness of millet bread even after 70 days.
Color change from green-to-yellow ([2]; Examples 25 & 27, broccoli, vapors, control 5 days): > 16 days
Spoilage Time - Sample (avocado; Example 77, 0.25 hr P-E): 2 days
Spoilage Time - Sample (avocado; Example 78, 2 hrs P-E): 2 days
Spoiling of the flesh with development of fungus (avocado; avocados, Examples 77, 78, 107, 108, 113 & 171): significantly delayed
Spoilage Time - Sample ([3]; Example 72, 5 ml of 10% allyl isothiocyanate solution in water): 21 days
Spoilage Time - Sample ([3]; Example 72, 5 ml of 10% allyl isothiocyanate solution in water, listed as allyl isothiocyanate): > 21 days
Spoilage Time - Sample ([3]; Example 73, Sachet): 21 days
Rise of dough (yeast): did not rise; also recorded: allyl isothiocyanate is capable of killing yeast
Spoilage Time - Sample ([4]; Example 16, Cream, Raw cow milk, 0.07 g, control 3 days): 24 days
Spoilage Time - Sample ([4]; Example 17, Curdling, Milk (pasteurized, whole milk), 0.10 g, control 2 days): 16 days
Spoilage Time - Sample ([4]; Example 18, Curdling, Milk & Yogurt (whole milk & yogurt) mix, 0.10 g, control 2 days): 16 days
Spoilage Time - Sample ([4]; Example 18, Curdling, Milk & Yogurt (whole milk & yogurt) mix, 0.10 g, control 2 days, listed as allyl isothiocyanate): > 16 days
Spoilage Time - Sample ([4]; Example 19, Curdling, Milk (pasteurized, whole milk), 0.05 g, control 2 days): 28 days
Spoilage Time - Sample ([4]; Example 19, Curdling, Milk (pasteurized, whole milk), 0.05 g, control 2 days, listed as allyl isothiocyanate): > 28 days and > 21 days
Fungus growth (fungus; Example 12, Paneer (Indian cottage cheese), sachet): > 10 days
Spoilage Time - Sample (fungus; Example 20, Apple juice, 0.02 g, control 7 days): 13 days
Spoilage Time - Sample (fungus; Example 21, Beet juice, 0.02 g, control 7 days): 13 days
Spoilage Time - Sample (fungus; Example 22, Blueberries, 16 hrs P-E, control 3 days): 24 days
Spoilage Time - Sample (fungus; Example 25, Broccoli, 0.25 hr P-E, control 6 days): 9 days
Spoilage Time - Sample (fungus; Example 26, Broccoli, Sachet, control 6 days): 9 days
Spoilage Time - Sample (fungus; Example 27, Broccoli, 2 hrs P-E, control 5 days): 16 days
Spoilage Time - Sample (fungus; Example 28, Carrot juice, 0.02 g, control 12 days): 13 days
Spoilage Time - Sample (fungus; Example 30, Chickpeas, Sachet, control 7 days): 9+ days
Spoilage Time - Sample (fungus; Example 33, Fresh, raw, shelled undried peanuts, Sachet, control 18 days): 46 days
Spoilage Time - Sample (fungus; Example 33, Fresh, raw, shelled undried peanuts, Sachet, control 18 days, listed as allyl isothiocyanate): significantly delayed or prevented
Spoilage Time - Sample (fungus; Example 35, 5.3% Gelatin, 175 bloom in water, Sachet, control 9 days): 47 days
Spoilage Time - Sample (fungus; Example 37, 4% Guar Gum in water, Sachet, control 5 days): 47 days
Spoilage Time - Sample (fungus; Example 39, Guar beans, 2 hrs P-E, control 6 days): 17 days
Spoilage Time - Sample (fungus; Example 40, Honeydew juice, 0.02 g, control 12 days): 30 days
Spoilage Time - Sample (fungus; Example 42, Lychee, 0.5 hr P-E, control 7 days): 11 days
Spoilage Time - Sample (fungus; Example 44, Mixed Legumes, 64 hrs P-E, 6 hrs soaking, control 11 days): 17 days
Spoilage Time - Sample (fungus; Example 45, Monterey cheese, Sachet, control 7 days): 10+ days
Spoilage Time - Sample (fungus; Example 45, Monterey cheese, Sachet, control 7 days, listed as allyl isothiocyanate): > 10 days
Spoilage Time - Sample (fungus; Example 47, Pomegranate juice, 0.02 g, control 7 days): 13 days
Spoilage Time - Sample (fungus; Example 48, Puri (Indian fried bread), 16 hrs P-E, control 5 days): 70+ days
Spoilage Time - Sample (fungus; Example 49, Raspberry, 1 hr P-E, control 5 days): 9 days
Spoilage Time - Sample (fungus; Example 50, Raspberry, 0.33 hr P-E, control 5 days): 31 days
Spoilage Time - Sample (fungus; Example 51, Raw milk cheddar cheese, 1 hr P-E & Sachet, control 6 days): 35 days
Spoilage Time - Sample (fungus; Example 53, Rotala (Indian millet bread), 16 hrs P-E, control 5 days): 70+ days
Spoilage Time - Sample (fungus; Example 56, 26.7% Starch solution in water, 0.25 ml of 0.42% solution, control 5 days): 47 days
Spoilage Time - Sample (fungus; Example 57, 26.7% Starch solution in water, Sachet, control 5 days): 47 days
Spoilage Time - Sample (fungus; Example 58, Strawberries, 5 hrs P-E, control 2 days): 15 days
Spoilage Time - Sample (fungus; Example 59, Tindora, 2 hrs P-E, control 6 days): 40 days
Spoilage Time - Sample (fungus; Example 60, Tofu, Sachet, control 6 days): 9+ days
Spoilage Time - Sample (fungus; Example 60, Tofu, Sachet, control 6 days, listed as allyl isothiocyanate): > 9 days
Spoilage Time - Sample (fungus; Example 62, Unshelled peanuts, 5 ml of 0.42% solution, control 5 days): 8 days
Spoilage Time - Sample (fungus; Example 62, Unshelled peanuts, 5 ml of 0.42% solution, control 5 days, listed as allyl isothiocyanate): either prevented or significantly delayed
Spoilage Time - Sample (fungus; Example 63, Wild Rice, 5 ml of 10% allyl isothiocyanate solution in water, control 11 days): 21 days
Spoilage Time - Sample (fungus; Example 64, Wild Rice, Sachet, control 11 days): 21 days
Spoilage Time - Sample (fungus; Example 89, Mixed Legumes, AI & Humidity, 64 hrs P-E AI, 6 hrs soaking in water, control 11 days): 17 days
Fungus growth (fungus; Indian millet bread, Indian wheat bread (roti), cheesecake, sachet or pre-exposure to vapors): either prevented or significantly delayed
Effectiveness in preventing fungus (fungus; compared with ethyl isothiocyanate): more effective
Fungus growth (fungus; fresh cold pressed carrot, red cabbage and beet juice, Examples 28, 21, 13): either prevented or significantly delayed
Fungus growth (fungus; fresh cold pressed pomegranate, blackberry, orange, red grape, apple, blueberry and honeydew juice): either prevented or significantly delayed
Shelf-life of vegetable juices (fungus; fresh, cold pressed tomatillo, lime and green cabbage juices): improved shelf-life
Effectiveness on ginger (fungus; ginger, pre-exposure and sachet method): found effective
Fungus growth (fungus; guar gum and starch, Examples 37, 56 & 57): either prevented or significantly delayed
Shelf-life of raw milk yogurt (fungus; raw milk yogurt): extended shelf-life
Fungus growth (fungus; strawberries, raspberries, blackberries and lychee): either prevented or significantly delayed
Shelf-life of flowery vegetables ([5]; flowery vegetables): extended shelf-life
Shelf-life extension ([5]; tindora dipped in solution): demonstrated shelf-life extension
Effectiveness as shelf-life extender ([5]; tofu): effective
Effectiveness for controlling one or more spoilage criteria ([5]; variety of foods): effective to a greater or lesser extent
